Assay results from US11254668B2, “Pyrazolo[1,5-A]pyrazin-4-yl and related derivatives” (Pfizer Inc., priority 2017, dated 2022).

Assays:
Type in all cases: biochemical
JAK2 = JAK2 (Homo sapiens (Human), UniProt O60674); assay: JAK Caliper Enzyme Assay at 1 mM ATP, JAK2
Outline: (§1)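 Inhibition is measured as reduced phosphorylation of a synthetic peptide by the recombinant human kinase domain at 1 mM ATP. Conditions give 20–30% conversion at room temperature before EDTA quench, and on-chip separation of labelled substrate and product yields percent conversion for dose–response plotting.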

JAK3 = JAK3 (Homo sapiens (Human), UniProt P52333); assay: JAK Caliper Enzyme Assay at 1 mM ATP, JAK3
Outline: (§2)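 IC50 (nM) derived from percent conversion of fluorescently labelled peptide, measured by Caliper LabChip mobility-shift separation after EDTA stop. Each JAK family kinase domain (human, recombinant) run at 1 mM ATP and room temperature, conditions set to 20-30% product; DMSO wells define uninhibited baseline.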

JAK1 = JAK1 (Homo sapiens (Human), UniProt P23458); assay: JAK Caliper Enzyme Assay at 1 mM ATP, JAK1
Outline: as §2

TYK2 = TYK2 (Homo sapiens (Human), UniProt P29597); assay: JAK Caliper Enzyme Assay at 1 mM ATP, TYK2
Outline: as §1

Sequence of JAK3 (P52333 822-1111): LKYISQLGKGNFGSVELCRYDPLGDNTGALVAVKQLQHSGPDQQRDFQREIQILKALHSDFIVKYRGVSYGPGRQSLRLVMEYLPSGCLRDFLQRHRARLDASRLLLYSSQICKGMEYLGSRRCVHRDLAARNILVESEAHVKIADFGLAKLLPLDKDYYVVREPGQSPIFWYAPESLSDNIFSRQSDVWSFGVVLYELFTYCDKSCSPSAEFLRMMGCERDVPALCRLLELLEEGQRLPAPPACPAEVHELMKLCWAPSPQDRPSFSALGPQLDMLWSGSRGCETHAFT
Sequence of JAK1 (P23458 875-1153): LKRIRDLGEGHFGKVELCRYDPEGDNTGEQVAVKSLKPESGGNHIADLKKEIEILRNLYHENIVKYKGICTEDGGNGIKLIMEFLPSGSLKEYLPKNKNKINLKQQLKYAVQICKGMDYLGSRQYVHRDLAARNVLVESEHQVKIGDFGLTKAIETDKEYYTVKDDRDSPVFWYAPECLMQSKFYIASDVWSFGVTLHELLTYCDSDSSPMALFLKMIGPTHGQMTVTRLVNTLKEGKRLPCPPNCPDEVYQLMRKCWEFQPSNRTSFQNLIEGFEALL
Sequence of TYK2 (P29597 897-1176): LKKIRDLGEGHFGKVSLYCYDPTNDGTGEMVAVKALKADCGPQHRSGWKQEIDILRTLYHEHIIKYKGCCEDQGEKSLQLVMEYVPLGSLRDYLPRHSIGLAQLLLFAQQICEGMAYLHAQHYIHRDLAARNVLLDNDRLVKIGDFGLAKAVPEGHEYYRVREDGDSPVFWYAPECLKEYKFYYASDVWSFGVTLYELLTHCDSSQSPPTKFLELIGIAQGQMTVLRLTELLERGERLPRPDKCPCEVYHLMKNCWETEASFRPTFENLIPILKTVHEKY
Sequence of JAK2 (O60674 849-1124): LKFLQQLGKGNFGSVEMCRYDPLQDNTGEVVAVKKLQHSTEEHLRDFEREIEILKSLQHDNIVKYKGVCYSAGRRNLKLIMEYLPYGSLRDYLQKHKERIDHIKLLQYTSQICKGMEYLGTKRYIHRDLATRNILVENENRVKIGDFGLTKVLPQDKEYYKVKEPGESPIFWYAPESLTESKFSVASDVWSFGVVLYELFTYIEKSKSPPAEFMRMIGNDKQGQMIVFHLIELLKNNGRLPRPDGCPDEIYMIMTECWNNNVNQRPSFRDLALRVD

| SMILES | IC50 (JAK2) [µM] | IC50 (JAK3) [µM] | IC50 (JAK1) [µM] | IC50 (TYK2) [µM] |
| --- | --- | --- | --- | --- |
| Cn1ncc(-c2cc3ncccc3c(-c3ccn(C4(CC#N)CN(S(C)(=O)=O)C4)n3)n2)c1N [Example 137, [3-{3-[7-(5-amino-1-methyl-1H-pyrazol-4-yl)-1,6-naphthyridin-5-yl]-1H-pyrazol-1-yl}-1-(methylsulfonyl)azetidin-3-yl]acetonitrile] | 0.207 | > 10 | 0.586 | 0.052 |
| Cn1cc(-c2cc3ncccc3c(-c3ccn(C4(CC#N)CN(S(C)(=O)=O)C4)n3)n2)c(N)n1 [Example 138, [3-{3-[7-(3-amino-1-methyl-1H-pyrazol-4-yl)-1,6-naphthyridin-5-yl]-1H-pyrazol-1-yl}-1-(methylsulfonyl)azetidin-3-yl]acetonitrile] | 0.021 | 3.19 | 0.382 | 0.008 |
| Cn1cc(-c2cc3ncccc3c(-c3ccn([C@]4(CC#N)C[C@@H](C#N)C4)n3)n2)c(N)n1 [Example 139, trans-3-{3-[7-(3-amino-1-methyl-1H-pyrazol-4-yl)-1,6-naphthyridin-5-yl]-1H-pyrazol-1-yl}-3-(cyanomethyl)cyclobutanecarbonitrile] | 0.02 | 3.72 | 0.243 | 0.01 |
| Cn1cc(-c2cc3ncccc3c(-c3ccn([C@]4(CC#N)C[C@H](C#N)C4)n3)n2)c(N)n1 [Example 140, cis-3-{3-[7-(3-amino-1-methyl-1H-pyrazol-4-yl)-1,6-naphthyridin-5-yl]-1H-pyrazol-1-yl}-3-(cyanomethyl)cyclobutanecarbonitrile] | 0.01 | 0.474 | 0.048 | 0.008 |
| Cn1ncc(-c2cc3ncccc3c(-c3ccn(C4(CC#N)CC(C#N)C4)n3)n2)c1N (stereo not drawn) [Example 141, trans-3-{3-[7-(5-amino-1-methyl-1H-pyrazol-4-yl)-1,6-naphthyridin-5-yl]-1H-pyrazol-1-yl}-3-(cyanomethyl)cyclobutanecarbonitrile] | 0.127 | > 10 | 0.355 | 0.049 |
| Cn1ncc(-c2cc3ncccc3c(-c3ccn([C@]4(CC#N)C[C@H](C#N)C4)n3)n2)c1N [Example 142, cis-3-{3-[7-(5-amino-1-methyl-1H-pyrazol-4-yl)-1,6-naphthyridin-5-yl]-1H-pyrazol-1-yl}-3-(cyanomethyl)cyclobutanecarbonitrile] | 0.03 | 2.16 | 0.053 | 0.019 |
| Cc1ccn(-c2cc3ncccc3c(-c3ccn(C4(CC#N)CN(CC(F)(F)F)C4)n3)n2)n1 [Example 143, [3-{3-[7-(3-methyl-1H-pyrazol-1-yl)-1,6-naphthyridin-5-yl]-1H-pyrazol-1-yl}-1-(2,2,2-trifluoroethyl)azetidin-3-yl]acetonitrile] | 6.67 | > 10 | > 10 | 0.767 |
| N#CCC1(n2ccc(-c3nc(-c4cn(C5COC5)cn4)cc4ncccc34)n2)CN(CC(F)(F)F)C1 [Example 144, [3-(3-{7-[1-(oxetan-3-yl)-1H-imidazol-4-yl]-1,6-naphthyridin-5-yl}-1H-pyrazol-1-yl)-1-(2,2,2-trifluoroethyl)azetidin-3-yl]acetonitrile] | 1.37 | > 10 | > 10 | 0.223 |
| CS(=O)(=O)N1CC(CC#N)(n2ccc(-c3nc(-c4cnco4)cc4ncccc34)n2)C1 [Example 145, [1-(methylsulfonyl)-3-{3-[7-(1,3-oxazol-5-yl)-1,6-naphthyridin-5-yl]-1H-pyrazol-1-yl}azetidin-3-yl]acetonitrile] | 1.79 | > 10 | 3.29 | 0.172 |
| N#CC[C@]1(n2ccc(-c3nc(-c4cc(CO)no4)cc4ncccc34)n2)C[C@@H](C#N)C1 [Example 146, cis-3-(cyanomethyl)-3-(3-{7-[3-(hydroxymethyl)-1,2-oxazol-5-yl]-1,6-naphthyridin-5-yl}-1H-pyrazol-1-yl)cyclobutanecarbonitrile] | 0.099 | > 10 | 0.4 | 0.026 |
| Cc1onc(N)c1-c1cc2ncccc2c(-c2ccn(C3(CC#N)CN(S(C)(=O)=O)C3)n2)n1 [Example 147, [3-{3-[7-(3-amino-5-methyl-1,2-oxazol-4-yl)-1,6-naphthyridin-5-yl]-1H-pyrazol-1-yl}-1-(methylsulfonyl)azetidin-3-yl]acetonitrile] | > 10 | > 10 | > 10 | 7.55 |
| Cc1nc(-c2cc3ncccc3c(-c3ccn(C4(CC#N)CN(CC(F)(F)F)C4)n3)n2)c[nH]1 [Example 150, [3-{3-[7-(2-methyl-1H-imidazol-4-yl)-1,6-naphthyridin-5-yl]-1H-pyrazol-1-yl}-1-(2,2,2-trifluoroethyl)azetidin-3-yl]acetonitrile] | 3.42 | > 10 | 9.83 | 0.29 |
| Cc1nc(-c2cc3ncccc3c(-c3ccn(C4(CC#N)CN(CC(F)(F)F)C4)n3)n2)cn1C [Example 151, [3-{3-[7-(1,2-dimethyl-1H-imidazol-4-yl)-1,6-naphthyridin-5-yl]-1H-pyrazol-1-yl}-1-(2,2,2-trifluoroethyl)azetidin-3-yl]acetonitrile] | 1.66 | > 10 | > 10 | 0.309 |
| Cc1ncc(-c2cc3ncccc3c(-c3ccn(C4(CC#N)CN(CC(F)(F)F)C4)n3)n2)n1C [Example 152, [3-{3-[7-(1,2-dimethyl-1H-imidazol-5-yl)-1,6-naphthyridin-5-yl]-1H-pyrazol-1-yl}-1-(2,2,2-trifluoroethyl)azetidin-3-yl]acetonitrile] | > 10 | > 10 | > 10 | 4.14 |
| N#CCC1(n2ccc(-c3nc(-c4cn[nH]n4)cc4ncccc34)n2)CN(CC(F)(F)F)C1 [Example 153, [3-{3-[7-(2H-1,2,3-triazol-4-yl)-1,6-naphthyridin-5-yl]-1H-pyrazol-1-yl}-1-(2,2,2-trifluoroethyl)azetidin-3-yl]acetonitrile] | 3.35 | > 10 | 5.84 | 0.239 |
| Cn1ncc(-c2cc3ncccc3c(-c3ccn(C4(CC#N)CN(CC(F)(F)F)C4)n3)n2)n1 [Example 154, [3-{3-[7-(2-methyl-2H-1,2,3-triazol-4-yl)-1,6-naphthyridin-5-yl]-1H-pyrazol-1-yl}-1-(2,2,2-trifluoroethyl)azetidin-3-yl]acetonitrile] | 3.18 | > 10 | > 10 | 0.287 |
| N#CCC1(n2ccc(-c3nc(-c4nc(CO)cs4)cc4ncccc34)n2)CC(C#N)C1 (stereo not drawn) [Example 156, cis-3-(cyanomethyl)-3-(3-{7-[4-(hydroxymethyl)-1,3-thiazol-2-yl]-1,6-naphthyridin-5-yl}-1H-pyrazol-1-yl)cyclobutanecarbonitrile] | 0.815 | > 10 | 2.05 | 0.119 |
| CS(=O)(=O)N1CC(CC#N)(n2ccc(-c3nc(-c4c[nH]c5nccc-5c4)cc4ncccc34)n2)C1 [Example 157, [1-(methylsulfonyl)-3-{3-[7-(7H-pyrrolo[2,3-b]pyridin-5-yl)-1,6-naphthyridin-5-yl]-1H-pyrazol-1-yl}azetidin-3-yl]acetonitrile] | 0.856 | > 10 | 1.68 | 0.148 |
| N#CCC1(n2ccc(-c3nc(-c4cnc5cc[nH]c5c4)cc4ncccc34)n2)CN(CC(F)(F)F)C1 [Example 158, [3-{3-[7-(1H-pyrrolo[3,2-b]pyridin-6-yl)-1,6-naphthyridin-5-yl]-1H-pyrazol-1-yl}-1-(2,2,2-trifluoroethyl)azetidin-3-yl]acetonitrile] | 0.666 | > 10 | 1.97 | 0.033 |
| CS(=O)(=O)N1CC(CC#N)(n2ccc(-c3nc(-c4c[nH]c5ncccc45)cc4ncccc34)n2)C1 [Example 159, [1-(methylsulfonyl)-3-{3-[7-(1H-pyrrolo[2,3-b]pyridin-3-yl)-1,6-naphthyridin-5-yl]-1H-pyrazol-1-yl}azetidin-3-yl]acetonitrile] | 0.116 | > 10 | 0.12 | 0.007 |
| CS(=O)(=O)N1CC(CC#N)(n2ccc(-c3nc(-c4c[nH]c5cccnc45)cc4ncccc34)n2)C1 [Example 160, [1-(methylsulfonyl)-3-{3-[7-(1H-pyrrolo[3,2-b]pyridin-3-yl)-1,6-naphthyridin-5-yl]-1H-pyrazol-1-yl}azetidin-3-yl]acetonitrile] | 5.57 | > 10 | > 10 | 0.795 |
| CS(=O)(=O)N1CC(CC#N)(n2ccc(-c3nc(-c4cnn5ccccc45)cc4ncccc34)n2)C1 [Example 161, [1-(methylsulfonyl)-3-{3-[7-(pyrazolo[1,5-a]pyridin-3-yl)-1,6-naphthyridin-5-yl]-1H-pyrazol-1-yl}azetidin-3-yl]acetonitrile] | 0.368 | > 10 | 0.404 | 0.035 |
| CS(=O)(=O)N1CC(CC#N)(n2ccc(-c3nc(-c4ccc5nccn5c4)cc4ncccc34)n2)C1 [Example 162, [3-{3-[7-(imidazo[1,2-a]pyridin-6-yl)-1,6-naphthyridin-5-yl]-1H-pyrazol-1-yl}-1-(methylsulfonyl)azetidin-3-yl]acetonitrile] | 0.546 | > 10 | 0.788 | 0.068 |
